The test system of the test is CD2F1 mice, L1210 leukemia ip, survival T/C. Put plainly: NCI In Vivo Anticancer Drug Screen. Data for tumor model L1210 Leukemia (intraperitoneal) in CD2F1 (CDF1) mice. The conditions noted are these: endpoint: mean survival time, higher = longer survival. The method in brief:
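Read-out first: treated-group measurement over vehicle-control measurement, expressed as a ratio. Animals bore a transplanted tumor line and were dosed with compound or vehicle.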

Setting [1] is: dose: 100.0 mg/kg/injection, schedule: Q01DX001 (ip), vehicle: saline.
[2] abbreviates: dose: 100.0 mg/kg/injection, schedule: Q04DX003 (ip), vehicle: saline with Tween-80.
The mark [3] stands for this setting: dose: 200.0 mg/kg/injection, schedule: Q04DX003 (ip), vehicle: saline with Tween-80.
[4] abbreviates: dose: 400.0 mg/kg/injection, schedule: Q04DX003 (ip), vehicle: saline with Tween-80.
[5] abbreviates: dose: 100.0 mg/kg/injection, schedule: Q04DX003 (ip), vehicle: saline.
Setting [6] is: dose: 200.0 mg/kg/injection, schedule: Q04DX003 (ip), vehicle: saline.
[7] abbreviates: dose: 400.0 mg/kg/injection, schedule: Q04DX003 (ip), vehicle: saline.
The mark [8] stands for this setting: dose: 12.5 mg/kg/injection, schedule: Q01DX009 (ip), vehicle: saline with Tween-80.
[9] abbreviates: dose: 25.0 mg/kg/injection, schedule: Q01DX009 (ip), vehicle: saline with Tween-80.
[10] abbreviates: dose: 50.0 mg/kg/injection, schedule: Q01DX009 (ip), vehicle: saline with Tween-80.
The mark [11] stands for this setting: dose: 100.0 mg/kg/injection, schedule: Q01DX009 (ip), vehicle: saline with Tween-80.
[12] abbreviates: dose: 200.0 mg/kg/injection, schedule: Q01DX009 (ip), vehicle: saline with Tween-80.
[13] abbreviates: dose: 6.25 mg/kg/injection, schedule: Q01DX009 (ip), vehicle: saline with Tween-80.

Several values for one entry are separate records, joined by “and”; a condition that tells them apart may be missing. Equal entries are not always repeated. Toxic doses and inconclusive results are not listed.

Turning to `c1ccc(CCNCc2ccccn2)nc1`, the T/C is, setting by setting: (dose: 25.0 mg/kg/injection, schedule: Q04DX002 (ip), vehicle: saline) 96 % of control; (dose: 50.0 mg/kg/injection, schedule: Q04DX002 (ip), vehicle: saline) 101 % of control; under setting [1], 94 % of control; (dose: 100.0 mg/kg/injection, schedule: Q04DX002 (ip), vehicle: saline) 96 % of control.

Take `CC(C)(CCC(=O)c1ccccc1)C(=O)O`: the T/C runs as follows: under setting [2], 90 % of control; under setting [3], 94 % of control; under setting [4], 87 % of control.

Take `CCOC(=O)c1cc2c3n(c1=O)CCCC3C(c1ccc(Cl)c(Cl)c1)OC2=O` (stereo not given): the T/C runs as follows: under setting [5], 98 % of control; under setting [6], 101 % of control; under setting [7], 104 % of control.

For `Clc1cc(Cl)c(C[N+]23CN4CN(CN(C4)C2)C3)cc1Cl`, the T/C runs as follows: under setting [8], 104 % of control; under setting [9], 98 % of control; under setting [10], 92 % of control and 109 % of control; under setting [11], 104 % of control and 112 % of control; under setting [2], 106 % of control; under setting [12], 108 % of control. In addition, the T/C under setting [3] was 104 % of control.

Regarding `CC(O)CNCCNc1ccc(NCCNCC(C)O)c2c1C(=O)c1c(O)ccc(O)c1C2=O` (stereo not given), the T/C (dose: 0.25 mg/kg/injection, schedule: Q01DX005 (ip), vehicle: water) was 123 % of control; the T/C (dose: 0.5 mg/kg/injection, schedule: Q01DX005 (ip), vehicle: water) is 123 % of control; the T/C (dose: 8.0 mg/kg/injection, schedule: Q01DX005 (ip), vehicle: water) is 165 % of control.

Regarding `CC(C)(C)C(C)(O)CN` (stereo not given), the T/C was 95 % of control under setting [5], 101 % of control under setting [6] and 92 % of control under setting [7].

On to `NC(=Nc1ccccc1)Nc1ccccc1`, for which the T/C was 96 % of control (dose: 6.25 mg/kg/injection, schedule: Q04DX002 (ip), vehicle: Klucel (hydroxypropylcellulose) (HPC)); 86 % of control (dose: 12.5 mg/kg/injection, schedule: Q04DX002 (ip), vehicle: Klucel (hydroxypropylcellulose) (HPC)); 92 % of control (dose: 25.0 mg/kg/injection, schedule: Q04DX002 (ip), vehicle: Klucel (hydroxypropylcellulose) (HPC)); 101 % of control under setting [10].

Consider `Cc1ccc(NC(=O)Oc2ccc(Br)cc2)cc1[N+](=O)[O-]`, for which the T/C runs as follows: under setting [10], 98 % of control; under setting [11], 102 % of control; under setting [12], 98 % of control.

Turning to `N#Cc1cn(C2OC(CO)C(O)C2O)c2nc(NN)nc(N)c12` (stereo not given), the T/C was 105 % of control (dose: 1.56 mg/kg/injection, schedule: Q01DX005 (ip), vehicle: water); 105 % of control (dose: 3.13 mg/kg/injection, schedule: Q01DX005 (ip), vehicle: water); 107 % of control (dose: 6.25 mg/kg/injection, schedule: Q01DX005 (ip), vehicle: water); 108 % of control (dose: 12.5 mg/kg/injection, schedule: Q01DX005 (ip), vehicle: water); 110 % of control (dose: 25.0 mg/kg/injection, schedule: Q01DX005 (ip), vehicle: water); 121 % of control (dose: 50.0 mg/kg/injection, schedule: Q01DX005 (ip), vehicle: water). Further, where the note is “dose: 100.0 mg/kg/injection, schedule: Q01DX005 (ip), vehicle: water”, the T/C is 96 % of control.

As to `CCSC(C)C`, the T/C is, setting by setting: (dose: 100.0 mg/kg/injection, schedule: Q01DX009 (ip), vehicle: saline) 101 % of control; (dose: 200.0 mg/kg/injection, schedule: Q01DX009 (ip), vehicle: saline) 96 % of control; (dose: 400.0 mg/kg/injection, schedule: Q01DX009 (ip), vehicle: saline) 98 % of control.

Turning to `O=P(O)(CCCCl)c1ccccc1`, the T/C (dose: 25.0 mg/kg/injection, schedule: Q04DX002 (ip), vehicle: saline with Tween-80) is 95 % of control; the T/C (dose: 50.0 mg/kg/injection, schedule: Q04DX002 (ip), vehicle: saline with Tween-80) is 91 % of control; the T/C (dose: 100.0 mg/kg/injection, schedule: Q04DX002 (ip), vehicle: saline with Tween-80) was 98 % of control; the T/C (dose: 200.0 mg/kg/injection, schedule: Q04DX002 (ip), vehicle: saline with Tween-80) was 91 % of control.

As to `OC(c1ccccc1)(c1ccccc1)C1c2ccccc2-c2[nH]c3ccccc3c21` (stereo not given), the T/C is 96 % of control (dose: 25.0 mg/kg/injection, schedule: Q01DX001 (ip), vehicle: saline with Tween-80); 93 % of control (dose: 50.0 mg/kg/injection, schedule: Q01DX001 (ip), vehicle: saline with Tween-80); 89 % of control (dose: 100.0 mg/kg/injection, schedule: Q01DX001 (ip), vehicle: saline with Tween-80).

Consider `CC1=CCC2(C)CCC(C(C)C)C2(O)CC1` (stereo not given), for which the T/C reads like this: under setting [5], 101 % of control; under setting [6], 93 % of control; under setting [7], 102 % of control.

For `CCCCCCCCCCCCCCCCOC(=O)Nc1ccc(S(=O)(=O)N(CCC)CCC)cc1`, the T/C was 94 % of control under setting [1]; 96 % of control (dose: 200.0 mg/kg/injection, schedule: Q01DX001 (ip), vehicle: saline); 92 % of control (dose: 400.0 mg/kg/injection, schedule: Q01DX001 (ip), vehicle: saline).

On to `COc1ccc2c(c1)c(C#N)cc[n+]2C`, for which the T/C is 100 % of control under setting [13]; 110 % of control under setting [8]; 100 % of control (dose: 12.5 mg/kg/injection, schedule: Q04DX003 (ip), vehicle: saline with Tween-80); 91 % of control (dose: 25.0 mg/kg/injection, schedule: Q04DX003 (ip), vehicle: saline with Tween-80).

For `O=C(c1ccccc1)C1OC1c1ccc(Cl)cc1` (stereo not given), the T/C is, setting by setting: (dose: 50.0 mg/kg/injection, schedule: Q04DX003 (ip), vehicle: saline with Tween-80) 96 % of control; under setting [2], 102 % of control; under setting [3], 106 % of control.

As for `C=CS(C=C)=NS(=O)(=O)c1ccc(C)cc1`, the T/C is 97 % of control and 107 % of control (dose: 1.56 mg/kg/injection, schedule: Q01DX009 (ip), vehicle: Klucel (hydroxypropylcellulose) (HPC)); 100 % of control and 105 % of control (dose: 3.12 mg/kg/injection, schedule: Q01DX009 (ip), vehicle: Klucel (hydroxypropylcellulose) (HPC)); 95 % of control and 103 % of control (dose: 6.25 mg/kg/injection, schedule: Q01DX009 (ip), vehicle: Klucel (hydroxypropylcellulose) (HPC)); 100 % of control and 107 % of control (dose: 12.5 mg/kg/injection, schedule: Q01DX009 (ip), vehicle: Klucel (hydroxypropylcellulose) (HPC)); 97 % of control and 105 % of control (dose: 25.0 mg/kg/injection, schedule: Q01DX009 (ip), vehicle: Klucel (hydroxypropylcellulose) (HPC)).

On to `CCOC(=O)c1ccc(N)c(C(O)(C(F)(F)F)C(F)(F)F)c1`, for which the T/C was 103 % of control under setting [2], 97 % of control under setting [3] and 97 % of control under setting [4].

Turning to `OCC(O)C(O)C(O)C(/C=N/Nc1ccccc1)=N/Nc1ccccc1` (stereo not given), the T/C runs as follows: (dose: 75.0 mg/kg/injection, schedule: Q01DX001 (ip), vehicle: saline) 95 % of control; (dose: 150.0 mg/kg/injection, schedule: Q01DX001 (ip), vehicle: saline) 95 % of control; (dose: 300.0 mg/kg/injection, schedule: Q01DX001 (ip), vehicle: saline) 95 % of control.

Regarding `CCc1ccc(C2=C(O)C(=O)C(c3ccc(CC)cc3)=C(O)C2=O)cc1`, the T/C was 97 % of control (dose: 1.56 mg/kg/injection, schedule: Q01DX001 (ip), vehicle: Klucel (hydroxypropylcellulose) (HPC)); 97 % of control (dose: 3.12 mg/kg/injection, schedule: Q01DX009 (ip), vehicle: saline with Tween-80); 96 % of control (dose: 3.13 mg/kg/injection, schedule: Q01DX001 (ip), vehicle: Klucel (hydroxypropylcellulose) (HPC)); 96 % of control (dose: 6.25 mg/kg/injection, schedule: Q01DX001 (ip), vehicle: Klucel (hydroxypropylcellulose) (HPC)); 89 % of control and 109 % of control under setting [13]; 104 % of control under setting [8]. Besides, the T/C is, setting by setting: (dose: 25.0 mg/kg/injection, schedule: Q01DX001 (ip), vehicle: Klucel (hydroxypropylcellulose) (HPC)) 120 % of control; under setting [9], 106 % of control and 111 % of control; under setting [10], 119 % of control.

The record behind these values is PubChem BioAssay AID256 (DTP/NCI, 2004).
